Data: US20110070171A1, “1-tert-Butylcyclohexanecarboxamide and uses thereof as cooling compounds” (priority 2009, published 2011)

How the values were obtained:
Type in all cases: in vivo
[1] = Flavor evaluation, tasted in water; conditions: tasted in water at 10 ppm
Text: Based on this flavor evaluation, it is indicative that the Structure I and Structure II of our invention are useful for augmenting, enhancing or imparting a taste or cooling or refreshing effect in or to a cosmetic, skin care product, lip gloss, hair care product, cologne, shaving balm, after-shave lotion, dairy product, fruit ice preparation, confectionery, mouth and throat lozenges, cough mixtures, decongestants, antacids, oral analgesics or other medicinal products, chewing gum, candy (including hard candy and soft candy), fondants, toothpaste, mouthwashes, mineral water, alcoholic beverage, non-alcoholic beverage, powdered beverage, or other foodstuff as a result of adding to a cosmetic, skin care product, lip gloss, hair care product, cologne, shaving balm, after-shave lotion, dairy product, fruit ice preparation, confectionery, lozenges, cough mixtures, decongestants, antacids, oral analgesics or other medicinal product, chewing gum, candy, fondants, toothpaste, mouthwashes, mineral water, alcoholic beverage, non-alcoholic beverage, powdered beverage, or other foodstuff, a taste or cooling or refreshing effect augmenting, enhancing or imparting quantity and concentration of Structure I and Structure II.

[2] = Evaluation of cooler mixed with fondant
Text: In this example, the Structure I and II were mixed with a fondant, commercially available from Confectionary House, Troy, N.Y., at levels listed in Table 1.

[3] = Chewing gum profiled by trained descriptive analysis panel; conditions: level 0.20%
Description: The following gum base formulation was prepared: […]
The orange flavor is commercially available from IFF. The gum base, Hades-T is commercially available from Cafosa Gum, Barcelona Spain.
Structure I and II by itself at levels detailed in the Tables below was blended with the gum base in a Sigma mixer. The resultant chewing gum blend was then manufactured into strips 1 inch in width and 0.1 inches in thickness. These strips were cut into lengths of 3 inches each.
Samples were profiled by a highly trained descriptive analysis panel. The ballot consisted of the following terms: Total impact, total mint, cooling-mouth closed, cooling-breath in, nasal cooling—breathe in, throat irritation, bitterness, tongue irritation, numbing. Each attribute was rated at discrete time points including 1 minute, 3 minutes, 5 minutes, 10 minutes, 20 minutes, and 30 minutes.

Structure (SMILES) | Taste description (cooling) [1] | COMMENTS (cooling evaluation in fondant) ([2]; 50 ppm) | COMMENTS (cooling evaluation in fondant) ([2]; 200 ppm) | Time and Evaluation (cooling in chewing gum) ([3]; 0-1 min) | Time and Evaluation (cooling in chewing gum) ([3]; 1-3 min) | Time and Evaluation (cooling in chewing gum) ([3]; 3-5 min) | Time and Evaluation (cooling in chewing gum) ([3]; 5-10 min) | Time and Evaluation (cooling in chewing gum) ([3]; 10-20 min) | Time and Evaluation (cooling in chewing gum) ([3]; 20-30 min)
CC(C)(C)C1(C(=O)NC2CC2)CCCCC1 [Structure I, 1-tert-butyl-N-cyclopropylcyclohexanecarboxamide] | gradual onset cooling | Slight irritation in rear of throat, slight cooling | Moderate cooling, consistent, and slight tingle. | – | – | – | – | – | –
COCCNC(=O)C1(C(C)(C)C)CCCCC1 [Structure II, 1-tert-butyl-N-[2-methoxy-ethyl]cyclohexanecarboxamide] | wet cardboard, slightly cooling | Slight bitterness, very little cooling. | Good Cooling low to moderate, slight throat | no perceivable cooling slightly bitter, | Slight cooling with slight tingle on tongue | full mouth cooling not very intense, slight | slight residual cooling very weak | still slight cooling, slight tingle | cooling diminished very weak, very mild
